We go through 24 compounds from patent US6596718B1, “7-Morpholin-4yl-benzothiazole amide derivatives” (Hoffmann-La Roche Inc., priority 2001, dated 2003).

Series [1] has as its target T1, human adenosine A1 receptor (Homo sapiens, UniProt P30542).
T1 construct: expressed in transfected cells; host or cells: CHO cells, Semliki Forest virus expression system; membrane preparation
T1 sequence (P30542 1-326): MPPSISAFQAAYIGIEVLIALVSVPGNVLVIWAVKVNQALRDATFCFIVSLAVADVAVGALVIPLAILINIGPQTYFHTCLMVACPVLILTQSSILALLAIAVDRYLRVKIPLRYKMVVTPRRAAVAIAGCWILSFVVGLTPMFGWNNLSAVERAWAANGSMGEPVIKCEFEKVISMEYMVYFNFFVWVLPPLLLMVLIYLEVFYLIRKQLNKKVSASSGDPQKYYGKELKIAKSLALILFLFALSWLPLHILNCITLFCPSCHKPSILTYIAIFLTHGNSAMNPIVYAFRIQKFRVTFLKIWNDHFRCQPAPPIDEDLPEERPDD
Description: [3H]-DPCPX binding assay, human adenosine A1 receptor (SPA, CHO cell membranes). Conditions: recombinant human A1 in CHO membranes; [3H]-DPCPX 0.6 nM; Ki by Cheng-Prussoff; read-out: hA1 (pKi) (converted). Here is the method:
Human Adenosine A1 Receptor
(§1) The human adenosine A1 receptor was recombinantly expressed in chinese hamster ovary (CHO) cells using the semlilki forest virus expression system. Cells were harvested, washed twice by centrifugation, homogenized and again washed by centrifugation. The final washed membrane pellet was suspended in a Tris (50 mM) buffer containing 120 mM NaCl, 5 mM KCl, 2 mM CaCl2 and 10 mM MgCl2 (pH 7.4) (buffer A). The [^3H]-DPCPX (([propyl-^3H]8-cyclopentyl-1,3-dipropyxanthine); 0.6 nM) binding assay was carried out in 96-well plates in the presence of 2.5 μg of membrane protein, 0.5 mg of Ysi-poly-l-lysine SPA beads and 0.1 U adenosine deaminase in a final volume of 200 μl of buffer A. Non-specific binding was defined using xanthine amine congener (XAC; 2 μM). Compounds were tested at 10 concentrations from 10 μM-0.3 nM. All assays were conducted in duplicate and repeated at least two times. Assay plates were incubated for 1 hour at room temperature before centrifugation and then bound ligand determined using a Packard Topcount scintillation counter. IC50, the concentration where 50% of the […] binding is displaced, values were calculated using a non-linear curve fitting program and ki values calculated using the Cheng-Prussoff equation.

Series [2] deals with T2, human adenosine A2A receptor (Homo sapiens, UniProt P29274).
T2 construct: expressed in transfected cells; host or cells: CHO cells, Semliki Forest virus expression system; membrane preparation
T2 sequence (P29274 whole entry): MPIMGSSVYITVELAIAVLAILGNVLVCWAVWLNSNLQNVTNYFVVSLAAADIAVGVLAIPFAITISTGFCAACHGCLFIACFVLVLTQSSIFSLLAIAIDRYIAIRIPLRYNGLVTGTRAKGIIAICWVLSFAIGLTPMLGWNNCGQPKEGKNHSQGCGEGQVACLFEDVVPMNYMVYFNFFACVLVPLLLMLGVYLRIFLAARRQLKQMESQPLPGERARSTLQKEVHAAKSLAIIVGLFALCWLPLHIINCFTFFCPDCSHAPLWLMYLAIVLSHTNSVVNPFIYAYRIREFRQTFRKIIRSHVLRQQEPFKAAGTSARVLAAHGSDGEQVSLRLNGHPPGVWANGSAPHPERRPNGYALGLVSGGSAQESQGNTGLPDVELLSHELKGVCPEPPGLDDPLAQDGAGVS
Description: [3H]-SCH-58261 binding assay, human adenosine A2A receptor (SPA, CHO cell membranes). Conditions: recombinant human A2A in CHO membranes; [3H]-SCH-58261 1 nM; Ki by Cheng-Prussoff; read-out: hA2 (pKi) (converted). The method, then:
Human Adenosine A2A Receptor
as §1, with “adenosine A2A” for “adenosine A1”, “(buffer A)” for “(buffer A).”, “The [^3H]-SCH-58261 (Dionisotti et al., 1997, Br J Pharmacol 121, 353; 1” for “The [^3H]-DPCPX (([propyl-^3H]8-cyclopentyl-1,3-dipropyxanthine); 0.6”, “counter. IC50 values,” for “counter. IC50,”, “displaced,” for “displaced, values”, “and Ki” for “and ki”

As usually defined, the melting point is the temperature, or range, at which the solid turns liquid. `COc1ccc(N2CCOCC2)c2sc(C(N)=O)nc12` [Example 1, 4-Methoxy-7-morpholin-4-yl-benzothiazole-2-carboxylic Acid Amide] displayed a melting point of 228 to 230 °C. For the same compound, in series [1], the Ki was 3980 nM. The Ki in series [2] was 25.1 nM.
The matching figures for `COc1ccc(N2CCOCC2)c2sc(C(=O)NCCc3ccccc3)nc12` [Example 6, 4-Methoxy-7-morpholin-4-yl benzothiazole-2-carboxylic acid phenethyl-amide]: 50 to 51 °C, 1260 nM and 20 nM.
`COc1ccc(N2CCOCC2)c2sc(C(=O)Nc3cccnc3)nc12` [Example 9, 4-Methoxy-7-morpholin-4-yl-benzothiazole-2-carboxylic acid pyridin-3-ylamide] returned a melting point of 220 to 221 °C. The Ki in series [1] is 3980 nM. In addition, in series [2], the Ki is 15.8 nM.
As to `COc1ccc(N2CCOCC2)c2sc(C(=O)NCc3ccccn3)nc12` [Example 13, 4-Methoxy-7-morpholin-4-yl-benzothiazole-2-carboxylic acid (pyridin-2-ylmethyl)-amide], the melting point is 181 to 182 °C. For the same compound, in series [1], the Ki was 6310 nM.
Take `COc1ccc(N2CCOCC2)c2sc(C(=O)NCc3cccc(Cl)c3)nc12` [Example 15, 4-Methoxy-7-morpholin-4-yl-benzothiazole-2-carboxylic acid 3-chloro-benzylamide]: the melting point lay within 148 to 150 °C. The Ki in series [1] was 2510 nM. Moreover, the Ki in series [2] was 20 nM.
The compound `COc1ccc(N2CCOCC2)c2sc(C(=O)NCc3ccccc3Cl)nc12` [Example 16, 4-Methoxy-7-morpholin-4-yl-benzothiazole-2-carboxylic acid 2-chloro-benzylamide] showed a melting point of 114 to 116 °C. For the same compound, the Ki in series [1] was 3980 nM.
Regarding `COc1ccc(N2CCOCC2)c2sc(C(=O)NCCc3cccs3)nc12` [Example 22, 4-Methoxy-7-morpholin-4-yl-benzothiazole-2-carboxylic acid (2-thiophen-2-yl-ethyl)-amide], the melting point was in the range of 120 to 121 °C. Also, in series [1], the Ki was 1260 nM. Moreover, the Ki in series [2] was 3.98 nM.
Take `COc1ccccc1CNC(=O)c1nc2c(OC)ccc(N3CCOCC3)c2s1` [Example 25, 4-Methoxy-7-morpholin-4-yl-benzothiazole-2-carboxylic acid 2-methoxy-benzylamide]: the melting point lay within 186 to 188 °C. Also, the Ki in series [1] is 7940 nM. Also, the Ki in series [2] was 25.1 nM.
As for `COc1ccccc1CCNC(=O)c1nc2c(OC)ccc(N3CCOCC3)c2s1` [Example 49, 4-Methoxy-7-morpholin-4-yl-benzothiazole-2-carboxylic acid [2-(2-methoxy-phenyl)-ethyl]-amide], the melting point lay within 158 to 160 °C. For the same compound, the Ki in series [1] was 1580 nM.
`COc1ccc(N2CCOCC2)c2sc(C(=O)NCCc3ccsc3)nc12` [Example 54, 4-Methoxy-7-morpholin-4-yl-benzothiazole-2-carboxylic acid (2-thiophen-3-yl-ethyl)-amide] had a melting point of 137 to 139 °C. Moreover, in series [1], the Ki is 1260 nM. The Ki in series [2] is 6.31 nM.
`COc1ccc(N2CCOCC2)c2sc(C(=O)NCCc3cccnc3)nc12` [Example 55, 4-Methoxy-7-morpholin-4-yl-benzothiazole-2-carboxylic acid (2-pyridin-3-yl-ethyl)-amide]: the melting point lay in the range of 160 to 163 °C. The Ki in series [1] was 6310 nM. In addition, in series [2], the Ki was 25.1 nM.
Regarding `COc1ccc(N2CCOCC2)c2sc(C(=O)NCCc3ccc(F)cc3)nc12` [Example 59, 4-Methoxy-7-morpholin-4-yl-benzothiazole-2-carboxylic acid [2-(4-fluoro-phenyl)-ethyl]-amide], the melting point lay within 150 to 153 °C. Moreover, in series [1], the Ki is 6310 nM.
For the compound `COc1ccc(N2CCOCC2)c2sc(C(=O)NCCc3ccc(Cl)cc3)nc12` [Example 62, 4-Methoxy-7-morpholin-4-yl-benzothiazole-2-carboxylic acid [2-(4-chloro-phenyl)-ethyl]-amide], the melting point is 153 to 154 °C. Further, the Ki in series [1] is 2000 nM.
`COc1ccc(N2CCOCC2)c2sc(C(=O)NCc3ccc(C)o3)nc12` [Example 70, 4-Methoxy-7-morpholin-4-yl-benzothiazole-2-carboxylic acid (5-methyl-furan-2-ylmethyl)-amide] displayed a melting point of 173 to 174 °C.
Turning to `COc1ccc(N2CCOCC2)c2sc(C(=O)NCC(=O)c3sccc3Cl)nc12` [Example 73, 4-Methoxy-7-morpholin-4-yl-benzothiazole-2-carboxylic acid [2-(3-chloro-thiophen-2-yl)-2-oxo-ethyl]-amide], the melting point was in the range of 125 to 127 °C. Besides, in series [1], the Ki was 1580 nM.
With `COc1ccc(N2CCOCC2)c2sc(C(=O)NCCc3ccccc3C)nc12` [Example 74, 4-Methoxy-7-morpholin-4-yl-benzothiazole-2-carboxylic acid (2-o-tolyl-ethyl)-amide], the melting point was in the range of 129 to 131 °C.
Compound `COc1ccc(N2CCOCC2)c2sc(C(=O)NCC(=O)c3ccc4c(c3)OCCO4)nc12` [Example 75, 4-Methoxy-7-morpholin-4-yl benzothiazole-2-carboxylic acid [2-(2,3-dihydro-benzo[1,4]dioxin-6-yl)-2-oxo-ethyl]-amide] registered a melting point of 206 to 208 °C.
For the compound `COc1ccc(N2CCOCC2)c2sc(C(=O)NCC(=O)c3sc4ccccc4c3C)nc12` [Example 76, 4-Methoxy-7-morpholin-4-yl-benzothiazole-2-carboxylic acid [2-(3-methyl-benzo[b]thiophen-2-yl)-2-oxo-ethyl]-amide], the melting point lay within 185 to 187 °C.
Take `COc1ccc(N2CCOCC2)c2sc(C(=O)NCC(=O)c3cccs3)nc12` [Example 78, 4-Methoxy-7-morpholin-4-yl-benzothiazole-2-carboxylic acid (2-oxo-2-thiophen-2-yl-ethyl)-amide]: the melting point was 171 to 173 °C.
Turning to `COc1ccc(N2CCOCC2)c2sc(C(=O)NCC(=O)c3ccsc3)nc12` [Example 79, 4-Methoxy-7-morpholin-4-yl-benzothiazole-2-carboxylic acid (2-oxo-2-thiophen-3-yl-ethyl)-amide], the melting point is 229 to 232 °C.
Same read-out and setting: to `COc1ccc(N2CCOCC2)c2sc(C(=O)NC(C)c3csc(C)n3)nc12` (stereo not shown) [Example 80, 4-Methoxy-7-morpholin-4-yl-benzothiazole-2-carboxylic acid [1-(2-methyl-thiazol-4-yl)-ethyl]-amide] belongs 174 to 175 °C; to `COc1ccc(N2CCOCC2)c2sc(C(=O)Nc3ccc(C)nc3)nc12` [Example 82, 4-Methoxy-7-morpholin-4-yl-benzothiazole-2-carboxylic acid (6-methyl-pyridin-3-yl)-amide], 145 to 147 °C; to `COc1ccc(N2CCOCC2)c2sc(C(=O)NCCSc3nnc(N)s3)nc12` [Example 83, 4-Methoxy-7-morpholin-4-yl-benzothiazole-2-carboxylic acid [2-(5-amino-[1,3,4]thiadiazol-2-ylsulfanyl)-ethyl]-amide], 237 to 239 °C.
Take `COc1ccc(N2CCOCC2)c2sc(C(=O)NC(C)Cc3cc4ccccc4o3)nc12` (stereo not shown) [Example 84, 4-Methoxy-7-morpholin-4-yl-benzothiazole-2-carboxylic acid (2-benzofuran-2-yl-1-methyl-ethyl)-amide]: the melting point was in the range of 144 to 146 °C.
